# From patent US5622966A, “7-substituted quinolones and naphthyridones as antibacterial agents” (Warner-Lambert Company, priority 1995, dated 1997)
# Tests used:
# Test in all cases: In vitro antibacterial activity, microtitration dilution method (MIC)
# Format in all cases: cell-based
# E. coli Vogel = details: Escherichia coli, read-out: Minimal Inhibitory Concentration MIC
# Text: (§1) The compounds of the invention display antibacterial activity when tested by the microtitration dilution method as described in Heifetz, et al, Antimicr. Agents & Chemoth. 6:124 (1974), which is incorporated herein by reference.
# (§2) By use of the above reference method, the following minimum inhibitory concentration value (MICs in μg/mL) shown in Table I were obtained for representative compounds of the invention.
# Enter. cloac. = details: read-out: Minimal Inhibitory Concentration MIC
# Text: as §1, §2
# Kleb. pneu. = details: read-out: Minimal Inhibitory Concentration MIC
# Text: as §1, §2
# Prot. rettg. = details: read-out: Minimal Inhibitory Concentration MIC
# Text: as §1, §2
# Pseu. aeru. = details: read-out: Minimal Inhibitory Concentration MIC
# Text: as §1, §2
# S. aureus R = details: Staphylococcus aureus, read-out: Minimal Inhibitory Concentration MIC
# Text: as §1, §2
# S. aureus S = details: Staphylococcus aureus, read-out: Minimal Inhibitory Concentration MIC
# Text: as §1, §2
# Streptococcus faec. = details: read-out: Minimal Inhibitory Concentration MIC
# Text: as §1, §2
# Streptococcus pneum. = details: read-out: Minimal Inhibitory Concentration MIC
# Text: as §1, §2
# Streptococcus pyog. = details: read-out: Minimal Inhibitory Concentration MIC
# Text: as §1, §2
Structure (SMILES),MIC (E. coli Vogel),MIC (Enter. cloac.),MIC (Kleb. pneu.),MIC (Prot. rettg.),MIC (Pseu. aeru.),MIC (S. aureus R),MIC (S. aureus S),MIC (Streptococcus faec.),MIC (Streptococcus pneum.),MIC (Streptococcus pyog.)
"CNCc1cccc(C2CCN(c3c(F)c(N)c4c(=O)c(C(=O)O)cn(C5CC5)c4c3F)C2)c1 (stereo not shown) [Example 13, 5-Amino-1-cyclopropyl-6,8-difluoro-1,4-dihydro-7-[3-[3-[(methylamino)methyl]phenyl]-1-pyrrolidinyl]-4-oxo-3-quinolinecarboxvlic acid]",0.2 µg/mL,0.2 µg/mL,0.4 µg/mL,0.8 µg/mL,1.6 µg/mL,0.05 µg/mL,0.013 µg/mL,0.05 µg/mL,0.05 µg/mL,0.05 µg/mL
"NCc1ccccc1C1CCN(c2nc3c(cc2F)c(=O)c(C(=O)O)cn3C2CC2)C1 (stereo not shown) [Example 1, 7-[3-[2-(Aminomethyl)phenyl]-1-pyrrolidinyl]-1-cyclopropyl-6-fluoro-1,4-dihydro-4-oxo-1,8-naphthyridine-3-carboxylic acid]",0.1 µg/mL,0.1 µg/mL,0.2 µg/mL,0.4 µg/mL,1.6 µg/mL,0.05 µg/mL,0.013 µg/mL,0.05 µg/mL,0.025 µg/mL,0.025 µg/mL
"Nc1c(F)c(N2CCC(c3cccnc3)C2)c(F)c2c1c(=O)c(C(=O)O)cn2C1CC1 (stereo not shown) [Example 22, 5-Amino-1-cyclopropyl-6,8-difluoro-1,4-dihydro-4-oxo-7-[3-(3-pyridinyl)-1-pyrrolidinyl]-3-quinoline-carboxylic acid]",0.1 µg/mL,0.1 µg/mL,0.2 µg/mL,0.2 µg/mL,1.6 µg/mL,0.006 µg/mL,≤ 0.003 µg/mL,0.05 µg/mL,0.025 µg/mL,0.025 µg/mL
"NCc1cccc(C2CCN(c3cc4c(cc3F)c(=O)c(C(=O)O)cn4C3CC3)C2)c1 (stereo not shown) [Example 7, 7-[3-[3-(Aminomethyl)phenyl]-1-pyrrolidinyl]-1-cyclopropyl-6-fluoro-1,4-dihydro-4-oxo-3-quinolinecarboxylic acid]",0.05 µg/mL,0.05 µg/mL,0.1 µg/mL,0.1 µg/mL,0.8 µg/mL,0.025 µg/mL,0.006 µg/mL,0.013 µg/mL,≤ 0.003 µg/mL,≤ 0.003 µg/mL
"NCc1ccc(C2CCN(c3c(F)c(N)c4c(=O)c(C(=O)O)cn(C5CC5)c4c3F)C2)cc1 (stereo not shown) [Example 11, 5-Amino-7-[3-[4-(aminomethyl)phenyl]-1-pyrrolidinyl]-1-cyclopropyl-6,8-difluoro-1,4-dihydro-4-oxo-3-quinolinecarboxylic acid]",0.1 µg/mL,0.1 µg/mL,0.2 µg/mL,0.2 µg/mL,0.8 µg/mL,0.013 µg/mL,≤ 0.003 µg/mL,0.013 µg/mL,0.013 µg/mL,0.013 µg/mL
"CNCc1ccc(C2CCN(c3cc4c(cc3F)c(=O)c(C(=O)O)cn4C3CC3)C2)cc1 (stereo not shown) [Example 14, 1-Cyclopropyl-6-fluoro-1,4-dihydro-7-[3-[4-[(methylamino)methyl]phenyl]-1-pyrrolidinyl]-4-oxo-3-quinolinecarboxylic acid]",0.2 µg/mL,0.2 µg/mL,0.4 µg/mL,0.4 µg/mL,1.6 µg/mL,0.013 µg/mL,0.006 µg/mL,0.025 µg/mL,0.013 µg/mL,0.013 µg/mL
"NCc1cccc(C2CCN(c3nc4c(cc3F)c(=O)c(C(=O)O)cn4C3CC3)C2)c1 (stereo not shown) [Example 6, 7-[3-[3-(Aminomethyl)phenyl]-1-pyrrolidinyl]-1-cyclopropyl-6-fluoro-1,4-dihydro-4-oxo-1,8-naphthyridine-3-carboxylic acid]",0.05 µg/mL,0.05 µg/mL,0.05 µg/mL,0.1 µg/mL,0.8 µg/mL,0.013 µg/mL,0.006 µg/mL,0.025 µg/mL,0.006 µg/mL,0.006 µg/mL
"CNCc1ccc(C2CCN(c3c(F)c(N)c4c(=O)c(C(=O)O)cn(C5CC5)c4c3F)C2)cc1 (stereo not shown) [Example 15, 5-Amino-1-cyclopropyl-6,8-difluoro-1,4-dihydro-7-[3-[4-[(methylamino)methyl]phenyl]-1-pyrrolidinyl]-4-oxo-3-quinolinecarboxylic acid]",0.2 µg/mL,0.2 µg/mL,0.4 µg/mL,0.4 µg/mL,1.6 µg/mL,0.013 µg/mL,0.006 µg/mL,0.025 µg/mL,0.013 µg/mL,0.013 µg/mL
"NCc1cccnc1C1CCN(c2c(F)c(N)c3c(=O)c(C(=O)O)cn(C4CC4)c3c2F)C1 (stereo not shown) [Example 29, 5-Amino-7-[3-[3-(aminomethyl)-2-pyridinyl]-1-pyrrolidinyl]-1-cyclopropyl-6,8-difluoro-1,4-dihydro-4-oxo-3-quinolinecarboxylic acid]",0.05 µg/mL,0.05 µg/mL,0.1 µg/mL,0.2 µg/mL,1.6 µg/mL,0.025 µg/mL,0.013 µg/mL,0.025 µg/mL,0.025 µg/mL,0.025 µg/mL
"O=C(O)c1cn(C2CC2)c2cc(N3CCC(c4ccccn4)C3)c(F)cc2c1=O (stereo not shown) [Example 17, 1-Cyclopropyl-6-fluoro-1,4-dihydro-4-oxo-7-[3-(2-pyridinyl)-1-pyrrolidinyl]-3-quinolinecarboxylic acid]",0.1 µg/mL,0.1 µg/mL,0.2 µg/mL,0.2 µg/mL,0.8 µg/mL,0.006 µg/mL,≤ 0.003 µg/mL,0.05 µg/mL,0.05 µg/mL,0.05 µg/mL
"NCc1cccc(C2CCN(c3c(F)c(N)c4c(=O)c(C(=O)O)cn(C5CC5)c4c3F)C2)c1 (stereo not shown) [Example 8, 5-Amino-7-[3-[3-(aminomethyl)phenyl]-1-pyrrolidinyl]-1-cyclopropyl-6,8-difluoro-1,4-dihydro-4-oxo-3-quinolinecarboxylic acid]",0.05 µg/mL,0.05 µg/mL,0.1 µg/mL,0.2 µg/mL,0.8 µg/mL,0.013 µg/mL,≤ 0.003 µg/mL,0.013 µg/mL,0.006 µg/mL,0.013 µg/mL
"O=C(O)c1cn(C2CC2)c2cc(N3CCC(c4cccnc4)C3)c(F)cc2c1=O (stereo not shown) [Example 21, 1-Cyclopropyl-6-fluoro-1,4-dihydro-4-oxo-7-[3-(3-pyridinyl)-1-pyrrolidinyl]-3-quinolinecarboxylic acid]",0.1 µg/mL,0.1 µg/mL,0.2 µg/mL,0.2 µg/mL,0.8 µg/mL,0.006 µg/mL,≤ 0.003 µg/mL,0.025 µg/mL,0.025 µg/mL,0.025 µg/mL
"Nc1c(F)c(N2CCC(c3ccncc3)C2)c(F)c2c1c(=O)c(C(=O)O)cn2C1CC1 (stereo not shown) [Example 25, 5-Amino-1-cyclopropyl-6,8-difluoro-1,4-dihydro-4-oxo-7-[3-(4-pyridinyl)-1-pyrrolidinyl]-3-quinoline-carboxylic acid]",0.2 µg/mL,0.2 µg/mL,0.4 µg/mL,0.4 µg/mL,3.1 µg/mL,0.006 µg/mL,≤ 0.003 µg/mL,0.05 µg/mL,0.05 µg/mL,0.05 µg/mL
